Measured values reported in article PMC12051620, “Molecular basis underlying the specificity of an antagonist AA92593 for mammalian melanopsins” (The Journal of Biological Chemistry, 2025).

Experiments:
Assay in all cases: GsX GloSensor assay with Gsα/q11
Assay type in all cases: cell-based, Branchiostoma lanceolatum
Conditions in all cases: 16.7 μM AA92593, COS-1 cells
[1] = system: lanceolatum melanopsin A269^6.52S mutant
Excerpt: (§1) We assessed the effect of the antagonist on the mutants using the GsX GloSensor assay with Gsα/q11. […] Furthermore, the double substitution F189^ECL2W/I207^5.42F further increased the susceptibility of the lanceolatum melanopsin to the antagonist by ∼88% (Fig. 7, G, H, and I). The AA92593-induced inhibition of the double mutant F189^ECL2W/I207^5.42F was as efficient as that of human melanopsin (Fig. 7I). […] Taken together, the introduction of Trp-189^ECL2 and Phe-207^5.42 rendered lanceolatum melanopsin highly sensitive to the antagonist (Fig. 7, G, H, and I).
(§2) For GloSensor assay, opsins, GloSensor assay sensor (coded by pGlo-22F), and NanoBiT-tagged G proteins were transiently expressed in COS-1 cells (kindly provided from Dr David Farrens, Oregon Health and Science University) using PEI as described previously ([24], [52]). For the GsX GloSensor assay ([12], [13]), each well of a 96-well assay plate (Corning) was transfected with 50 ng opsin plasmid, 16.7 ng G protein plasmid, 50 ng pGlo-22F plasmid (Promega), and 500 ng PEI in 25 μl Opti-mem and 75 μl Dulbecco's modified Eagle's medium (D-MEM). For NanoBiT G protein dissociation assay, each well of a 96-well assay plate was transfected with 50 ng opsin plasmid, 5 ng Lg-BiT inserted Gqα (Gqα-LgBiT) plasmid, 25 ng Gβ1 plasmid, 25 ng Sm-BiT fused Gγ2 plasmid, 5 ng RIC8A plasmid, and 500 ng PEI in 25 μl Opti-mem and 75 μl D-MEM. For GFP-fluorescence microscopy, a 35-mm cell culture dish (IWAKI) was transfected with 2 μg melanopsin-GFP plasmid and 8 μg PEI in 400 μl Opti-mem and 1.2 ml D-MEM. […]
(§3) The transfected COS-1 cells were incubated at 37 °C, 5% CO2 for 2 days, and the medium was aspirated and exchanged with 50 μl of HBSS (145 mM NaCl, 10 mM D-glucose, 5 mM KCl, 1 mM MgCl2, 1.7 mM CaCl2, 1.5 mM NaHCO3, 10 mM Hepes, pH 7.4), containing 33.3, 20, 10, 2, 0.2, 0.02, 0.002, or 0 μM AA92593, 0.5% dimetyl sulfoxide (DMSO), and 4% (vol/vol) GloSensor cAMP reagent stock solution. […] Then, the cells were incubated at room temperature for 1 h, and luminescence changes were monitored. After incubation of the cells with AA92593, luminescence measurement was interrupted, the plate was ejected, and the cells were added with 50 μl of HBSS containing 0.2 μM 9-cis-retinal. […] Luminescence was measured using GM-2000 or GM-3510 microplate reader (Promega). Luminescence level of each well was measured every 30 s with integration time of 0.6 to 0.9 s. To illuminate opsins, luminescence measurement was interrupted, the plate was ejected, and the plate was illuminated by white light with CN-160 LED video light (light intensity, ∼9 mW/cm^2) (NEEWER). […] After illumination, luminescence measurement was resumed. The measured luminescence levels were normalized to the level at the starting point (time = 0 min). […]

[2] = system: lanceolatum melanopsin F189^ECL2W mutant
Excerpt: as §1, §2, §3

[3] = system: lanceolatum melanopsin I207^5.42F mutant
Excerpt: as §1, §2, §3

[4] = system: lanceolatum melanopsin I207^5.42L mutant
Excerpt: as §1, §2, §3

COc1ccc(S(=O)(=O)N2CCCCC2)cc1C [AA92593]
change in sensitivity to AA92593 vs WT [1]: little changes | increase in sensitivity to AA92593 vs WT [2]: ~21% | increase in sensitivity to AA92593 vs WT [3]: ~42% | change in sensitivity to AA92593 vs WT [4]: little changes
